Measured values from patent US8324378B2, “Prodrugs and conjugates of prenylation inhibitors” (Purdue Research Foundation, priority 2007, dated 2012).
Read-outs that look alike come from different tables or passages of the source.

Columns and labels:
[1] = target: T1, FTase (Homo sapiens, UniProt P49354+P49356); assay: in vitro inhibition of FTase by farnesylated monophosphates; type: biochemical
[2] = target: T1, FTase; details: background, have been shown; cited from earlier work
[3] = read-out: IC50 for inhibition of FTase

SMILES | IC50 [1, 3] | inhibition of FTase, described in words [2] | further results
CC(C)=CCCC(C)=CCCC(=CCOP(=O)(O)O)CC=C(C)C [3-(3,3-dimethylallyl)farnesyl monophosphate] | – | – | IC50 ([1]; highest dose tested 10 uM, read-out: IC50 for inhibition of FTase (not showing 50% inhibition at the highest dose tested)): > 10 µM
CC(C)=CCCC(C)=CCCC(=CCOP(=O)(O)OP(=O)(O)O)CC=C(C)C [pyrophosphate of 3-(3,3-dimethylallyl)farnesol] | – | protein-selective inhibitor | –
C=CCC(=CCOP(=O)(O)OP(=O)(O)O)CCC=C(C)CCC=C(C)C [pyrophosphate of 3-allylfarnesol] | – | nanomolar inhibitors | –
CC(C)=CCCC(C)=CCCC(=CCOP(=O)(O)OP(=O)(O)O)C(C)(C)C [pyrophosphate of 3-t-butylfarnesol] | – | nanomolar inhibitors | –

Continued, in another order:

IC50 [1, 3] | SMILES | inhibition of FTase, described in words [2] | further results
~0.011 µM | C=CCC(=CCOP(=O)(O)O)CCC=C(C)CCC=C(C)C [3-Allylfarnesyl monophosphate, 3-allylfarnesyl monophosphate] | – | –
~0.016 µM | CC(C)=CCCC(C)=CCCC(=CCOP(=O)(O)O)C(C)(C)C [3-t-butylfarnesyl monophosphate] | – | –
